# In patent US20260125378A2, “Heterocyclic Compounds” (BeOne Medicines I GmbH, priority 2023, published 2026):
# Tests used:
# [1] = molecular target: T1, Full length DGKζ (in-house protein M1-V929) (Homo sapiens, UniProt Q13574); experiment: Biochemical DGK IC50 assay (ADP-Glo, lipid micelle substrate), DGKζ; details: 1 hour preincubation, 1 hour reaction, room temperature
# T1 construct: His (N); TEV site (N); made in house; host or cells: Sf9 insect cells (Bac-to-Bac baculovirus)
# Outline: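 Full-length human DGKζ (M1-V929, His-TEV tagged, Sf9 baculovirus-expressed) with DAG/PS lipid micelle substrate in octyl glucoside, at room temperature in 50 mM HEPES, 10 mM MgCl2, 0.01 mM CaCl2 buffer.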
# [2] = molecular target: T2, Full length DGKα (D21-10BG, SignalChem) (Homo sapiens, UniProt P23743); experiment: Biochemical DGK IC50 assay (ADP-Glo, lipid micelle substrate), DGKα; details: 1 hour preincubation, 1 hour reaction, room temperature
# T2 construct: Full length DGKα (D21-10BG, SignalChem); purchased SignalChem D21-10BG
# T2 sequence (P23743 whole entry): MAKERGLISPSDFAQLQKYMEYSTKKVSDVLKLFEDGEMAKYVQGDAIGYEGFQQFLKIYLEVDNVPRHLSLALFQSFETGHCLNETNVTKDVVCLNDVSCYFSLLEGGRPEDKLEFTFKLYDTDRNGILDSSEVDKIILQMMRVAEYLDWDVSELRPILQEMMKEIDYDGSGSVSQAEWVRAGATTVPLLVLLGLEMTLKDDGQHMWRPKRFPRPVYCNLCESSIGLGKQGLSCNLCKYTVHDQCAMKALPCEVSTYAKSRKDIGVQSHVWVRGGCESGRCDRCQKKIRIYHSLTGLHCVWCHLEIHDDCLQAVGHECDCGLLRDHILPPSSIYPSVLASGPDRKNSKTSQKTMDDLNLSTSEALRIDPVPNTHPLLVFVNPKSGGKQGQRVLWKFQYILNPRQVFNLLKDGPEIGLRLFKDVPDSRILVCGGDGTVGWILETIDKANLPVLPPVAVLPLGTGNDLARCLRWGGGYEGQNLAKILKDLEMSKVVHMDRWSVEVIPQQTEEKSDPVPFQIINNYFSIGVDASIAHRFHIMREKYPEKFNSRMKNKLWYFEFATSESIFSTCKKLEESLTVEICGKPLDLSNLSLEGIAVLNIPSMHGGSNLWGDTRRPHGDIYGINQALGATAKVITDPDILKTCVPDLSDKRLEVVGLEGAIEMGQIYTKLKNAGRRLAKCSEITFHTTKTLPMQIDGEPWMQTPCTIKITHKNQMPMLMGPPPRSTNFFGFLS
# Outline: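 Full-length human DGKα with DAG/PS lipid micelle substrate (in octyl glucoside buffer), reacted 1 h at room temperature in 50 mM HEPES, 10 mM MgCl2, 0.01 mM CaCl2, 0.1 mM Na3VO4, 0.01% BSA, 0.005% Tween-20. ADP formed read by ADP-Glo luminescence; IC50 from inhibition across increasing compound concentrations.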
# T1 sequence (Q13574 1-929 isoform Q13574-4): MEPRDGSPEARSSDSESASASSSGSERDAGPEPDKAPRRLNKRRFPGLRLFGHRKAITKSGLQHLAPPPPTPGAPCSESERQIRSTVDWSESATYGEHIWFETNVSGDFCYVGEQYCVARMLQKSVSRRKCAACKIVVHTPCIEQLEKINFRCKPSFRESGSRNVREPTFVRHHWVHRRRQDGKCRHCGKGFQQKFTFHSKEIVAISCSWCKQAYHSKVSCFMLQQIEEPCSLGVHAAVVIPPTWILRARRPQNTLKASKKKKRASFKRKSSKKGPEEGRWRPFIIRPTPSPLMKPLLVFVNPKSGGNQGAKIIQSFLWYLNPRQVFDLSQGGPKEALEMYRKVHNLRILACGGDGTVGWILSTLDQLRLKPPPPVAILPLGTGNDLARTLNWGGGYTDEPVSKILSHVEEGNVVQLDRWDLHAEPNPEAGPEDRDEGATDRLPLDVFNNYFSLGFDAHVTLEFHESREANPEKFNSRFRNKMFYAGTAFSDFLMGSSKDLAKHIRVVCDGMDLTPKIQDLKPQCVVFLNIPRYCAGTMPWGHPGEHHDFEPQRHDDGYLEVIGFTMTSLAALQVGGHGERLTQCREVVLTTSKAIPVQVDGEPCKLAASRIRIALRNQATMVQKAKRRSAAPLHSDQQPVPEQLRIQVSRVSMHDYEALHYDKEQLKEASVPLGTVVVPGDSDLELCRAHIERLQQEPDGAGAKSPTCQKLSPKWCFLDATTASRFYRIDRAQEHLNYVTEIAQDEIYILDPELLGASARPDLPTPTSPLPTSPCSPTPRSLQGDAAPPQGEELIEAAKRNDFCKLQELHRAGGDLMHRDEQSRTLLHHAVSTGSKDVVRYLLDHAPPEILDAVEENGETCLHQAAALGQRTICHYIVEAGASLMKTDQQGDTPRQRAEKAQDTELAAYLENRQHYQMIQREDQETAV
Structure (SMILES),IC50 [1] [nM],IC50 [2] [nM]
"CCc1nc2cc(C(C)N3C[C@H](C)N(c4nc(=O)n(C)c5c4nc(CC#N)n5CC)C[C@H]3C)ccc2s1 (single isomer, unassigned) [Compound A95a]",11,24700
"CCc1nc2cc(C(C)N3C[C@H](C)N(c4nc(=O)n(C)c5c4nc(CC#N)n5CC)C[C@H]3C)ccc2s1 (single isomer, unassigned) [Compound A95b]",555,108000
"CC(c1ccc2c(c1)OC(C)(C)O2)N1C[C@H](C)N(c2nc(=O)n(C)c3c2nc(CC#N)n3C)C[C@H]1C (single isomer, unassigned) [Compound A98a]",5,14300
"CCn1c(CC#N)nc2c(N3C[C@@H](C)N(C(C)c4ccnc5c4OCCC5(F)F)C[C@@H]3C)nc(=O)n(C)c21 (single isomer, unassigned) [Compound A103a]",524,> 150000
"CCn1c(CC#N)nc2c(N3C[C@@H](C)N(C(C)c4ccnc5c4OCCC5(F)F)C[C@@H]3C)nc(=O)n(C)c21 (single isomer, unassigned) [Compound A103b]",52,> 150000
"CCn1c(CC#N)nc2c(N3C[C@@H](C)N(C(C)c4cccc(C(C)C)c4)C[C@@H]3C)nc(=O)n(C)c21 (single isomer, unassigned) [Compound A108a]",7,65200
"CCn1c(CC#N)nc2c(N3C[C@@H](C)N(C(C)c4cccc(C(C)C)c4)C[C@@H]3C)nc(=O)n(C)c21 (single isomer, unassigned) [Compound A108b]",822,95800
"CCn1c(CC#N)nc2c(N3C[C@@H](C)N(C(C)c4ccc(C)cc4C(F)(F)F)C[C@@H]3C)nc(=O)n(C)c21 (single isomer, unassigned) [Compound A116a]",7760,> 150000
"CCn1c(CC#N)nc2c(N3C[C@@H](C)N(C(C)c4ccc(C)cc4C(F)(F)F)C[C@@H]3C)nc(=O)n(C)c21 (single isomer, unassigned) [Compound A116b]",228,> 150000
"CCn1c(CC#N)nc2c(N3C[C@@H](C)N(C(C)c4cccc(OC(C)C)n4)C[C@@H]3C)nc(=O)n(C)c21 (single isomer, unassigned) [Compound A117a]",3300,> 150000
"CCn1c(CC#N)nc2c(N3C[C@@H](C)N(C(C)c4cccc(OC(C)C)n4)C[C@@H]3C)nc(=O)n(C)c21 (single isomer, unassigned) [Compound A117b]",75,145000
"CCn1c(CC#N)nc2c(N3C[C@@H](C)N(C(C)c4cccc(C(F)(F)F)n4)C[C@@H]3C)nc(=O)n(C)c21 (single isomer, unassigned) [Compound A118a]",4820,> 150000
"CCn1c(CC#N)nc2c(N3C[C@@H](C)N(C(C)c4cccc(C(F)(F)F)n4)C[C@@H]3C)nc(=O)n(C)c21 (single isomer, unassigned) [Compound A118b]",103,65600
"CC(c1ccc(C(F)(F)F)cn1)N1C[C@H](C)N(c2nc(=O)n(C)c3c2nc(CC#N)n3C)C[C@H]1C (single isomer, unassigned) [Compound A148a]",1100,3630
"CC(c1ccc(C(F)(F)F)cn1)N1C[C@H](C)N(c2nc(=O)n(C)c3c2nc(CC#N)n3C)C[C@H]1C (single isomer, unassigned) [Compound A148b]",176,666
"CC[C@H]1CN(C(C)c2ccc(C(F)(F)F)cc2)[C@H](CC)CN1c1nc(=O)n(C)c2c1nc(CC#N)n2C (single isomer, unassigned) [Compound A149a]",37,1620
"CC[C@H]1CN(C(C)c2ccc(C(F)(F)F)cc2)[C@H](CC)CN1c1nc(=O)n(C)c2c1nc(CC#N)n2C (single isomer, unassigned) [Compound A149b]",15,308
"CC[C@@H]1CN(c2nc(=O)n(C)c3c2nc(CC#N)n3CC)[C@@H](C)CN1C(C)c1ccc2c(n1)OC(C)(C)CO2 (single isomer, unassigned) [Compound A158a]",8,61900
"CC[C@@H]1CN(c2nc(=O)n(C)c3c2nc(CC#N)n3CC)[C@@H](C)CN1C(C)c1ccc2c(n1)OC(C)(C)CO2 (single isomer, unassigned) [Compound A158b]",407,> 150000
"CC[C@@H]1CN(c2nc(=O)n(C)c3c2nc(CC#N)n3C)[C@@H](C)CN1C(C)c1ccc2c(n1)OC(C)(C)CO2 (single isomer, unassigned) [Compound A159a]",25,27400
"CC[C@@H]1CN(c2nc(=O)n(C)c3c2nc(CC#N)n3C)[C@@H](C)CN1C(C)c1ccc2c(n1)OC(C)(C)CO2 (single isomer, unassigned) [Compound A159b]",691,63400
"CCn1c(CC#N)nc2c(N3C[C@@H](C)N(C(C)c4nc5c(cc4F)OCC(C)(C)O5)C[C@@H]3C)nc(=O)n(C)c21 (single isomer, unassigned) [Compound A161a]",24,71800
"CCn1c(CC#N)nc2c(N3C[C@@H](C)N(C(C)c4nc5c(cc4F)OCC(C)(C)O5)C[C@@H]3C)nc(=O)n(C)c21 (single isomer, unassigned) [Compound A161b]",2630,> 150000
"CCn1c(CC#N)nc2c(N3C[C@@H](C)N(C(C)c4cc(F)c5c(n4)OC(C)(C)CO5)C[C@@H]3C)nc(=O)n(C)c21 (single isomer, unassigned) [Compound A163a]",13,> 150000
"CCn1c(CC#N)nc2c(N3C[C@@H](C)N(C(C)c4cc(F)c5c(n4)OC(C)(C)CO5)C[C@@H]3C)nc(=O)n(C)c21 (single isomer, unassigned) [Compound A163b]",2070,> 150000

# Other lines, results leading:
IC50 [1] [nM],IC50 [2] [nM],Structure (SMILES)
38,7280,"CC(c1ccc2c(c1)OC(F)(F)C(F)(F)O2)N1C[C@H](C)N(c2nc(=O)n(C)c3c2nc(CC#N)n3C)C[C@H]1C (single isomer, unassigned) [Compound A79a]"
529,14800,"CC(c1ccc2c(c1)OC(F)(F)C(F)(F)O2)N1C[C@H](C)N(c2nc(=O)n(C)c3c2nc(CC#N)n3C)C[C@H]1C (single isomer, unassigned) [Compound A79b]"
7,65600,"CCn1c(CC#N)nc2c(N3C[C@@H](C)N(C(C)c4ccc5c(c4)OC(F)(F)CO5)C[C@@H]3C)nc(=O)n(C)c21 (single isomer, unassigned) [Compound A80a]"
664,> 150000,"CCn1c(CC#N)nc2c(N3C[C@@H](C)N(C(C)c4ccc5c(c4)OC(F)(F)CO5)C[C@@H]3C)nc(=O)n(C)c21 (single isomer, unassigned) [Compound A80b]"
1250,148000,"CCn1c(CC#N)nc2c(N3C[C@@H](C)N(C(C)c4ccc5c(c4)OC(C)(C)O5)C[C@@H]3C)nc(=O)n(C)c21 (single isomer, unassigned) [Compound A85a]"
14,88600,"CCn1c(CC#N)nc2c(N3C[C@@H](C)N(C(C)c4ccc5c(c4)OC(C)(C)O5)C[C@@H]3C)nc(=O)n(C)c21 (single isomer, unassigned) [Compound A85b]"
6,16600,"CCn1c(CC#N)nc2c(N3C[C@@H](C)N(C(C)c4ccc5c(c4)OC(C)(C)CC5)C[C@@H]3C)nc(=O)n(C)c21 (single isomer, unassigned) [Compound A94a]"
532,> 150000,"CCn1c(CC#N)nc2c(N3C[C@@H](C)N(C(C)c4ccc5c(c4)OC(C)(C)CC5)C[C@@H]3C)nc(=O)n(C)c21 (single isomer, unassigned) [Compound A94b]"
262,19700,"CC(c1ccc2c(c1)OC(C)(C)O2)N1C[C@H](C)N(c2nc(=O)n(C)c3c2nc(CC#N)n3C)C[C@H]1C (single isomer, unassigned) [Compound A98b]"
71,34500,"CCn1c(CC#N)nc2c(N3C[C@@H](C)N(C(C)c4ccc5c(c4)OC(F)(F)O5)C[C@@H]3C)nc(=O)n(C)c21 (single isomer, unassigned) [Compound A99a]"
536,46500,"CCn1c(CC#N)nc2c(N3C[C@@H](C)N(C(C)c4ccc5c(c4)OC(F)(F)O5)C[C@@H]3C)nc(=O)n(C)c21 (single isomer, unassigned) [Compound A99b]"
496,68600,"CCn1c(CC#N)nc2c(N3C[C@@H](C)N(C(C)c4cc5c(cc4F)OC(C)(C)CO5)C[C@@H]3C)nc(=O)n(C)c21 (single isomer, unassigned) [Compound A156a]"
6,14100,"CCn1c(CC#N)nc2c(N3C[C@@H](C)N(C(C)c4cc5c(cc4F)OC(C)(C)CO5)C[C@@H]3C)nc(=O)n(C)c21 (single isomer, unassigned) [Compound A156b]"
28,11600,"CCn1c(CC#N)nc2c(N3C[C@@H](C)N(C(C)c4cc5c(cc4F)OCC(C)(C)O5)C[C@@H]3C)nc(=O)n(C)c21 (single isomer, unassigned) [Compound A157a]"
346,55700,"CCn1c(CC#N)nc2c(N3C[C@@H](C)N(C(C)c4cc5c(cc4F)OCC(C)(C)O5)C[C@@H]3C)nc(=O)n(C)c21 (single isomer, unassigned) [Compound A157b]"
10,31700,"CCn1c(CC#N)nc2c(N3C[C@@H](C)N(C(C)c4ccc5c(c4)OC4(CCC4)O5)C[C@@H]3C)nc(=O)n(C)c21 (single isomer, unassigned) [Compound A169a]"
